Experimental findings from paper PMC8160793, “Potent Antimicrobial and Antibiofilm Activities of Feleucin-K3 Analogs Modified by α-(4-Pentenyl)-Ala against Multidrug-Resistant Bacteria” (Biomolecules, 2021) are described below.

Values after ≈ are worked out from the molar mass of the structure shown. Square brackets hold non-standard residues; d marks the D form. Peptide text beside a SMILES is read from it. ξ: configuration not given here. ξαMeGly(pent-4-enyl) = C=CCCCC(C)(N)C(=O)O

Data set [1] has as its system E. coli ATCC 25922. Type of data set: cell-based. The settings on record: ATCC 25922, 18 h. On the procedure: The minimum inhibitory concentration (MIC) of the Feleucin-K3 analogs was tested by the broth microdilution method. Sensitive bacteria and drug-resistant bacteria were diluted to 1 × 10^6 CFU/mL, according to the McFarland standards. Bacterial suspension and peptide solutions (8–128 μg/mL) were incubated at 37 °C for 18 h. The minimum concentration without obvious bacterial growth was the MIC of the peptides. The stability of the analogs in a physiological salt environment was also investigated. In brief, salt powder (450-mM NaCl) was dissolved in deionized water, and the following investigational steps were the same as those described before. The above steps were repeated several times, until the same value was obtained three times.

Another data set deals with MRSA 936. Type of data set: cell-based, Staphylococcus aureus. As to conditions: 936, 18 h. The procedure, abridged:
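MICs come from broth microdilution with 1 × 10^6 CFU/mL bacteria and peptide at 8–128 μg/mL, incubated 18 h at 37 °C. Salt stability was assessed under 450-mM NaCl, otherwise identically. Values were accepted once obtained three times.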

The subject of a further data set is MRSA ATCC 33591. Type of data set: cell-based, Staphylococcus aureus. The settings on record: ATCC 33591, 24 h. How it is done: (§1) The antibiofilm activity of the peptides was determined according to the previously described methods. Strains (final concentration of 5 × 10^5 CFU/mL) and peptides (4–128 μg/mL) were incubated for 24 h at 37 °C. Biofilm cells were cleaned with 0.01-M PBS and fixed with methanol. Crystal violet (0.1%, HopeBiol, Qingdao, China) was used to stain the biofilm cells for 10 min. After washing with water, 95% ethanol was finally added, and the optical density at 595 nm was measured with a microplate reader (Flex Station 3; Laguna Hills, CA, USA).

For another data set, the system named is S. aureus ATCC 25923. It is filed as cell-based, Staphylococcus aureus. As to conditions: ATCC 25923, 24 h. How it is done: as §1
The test system of data set [2] is E. coli ATCC 25922. It is filed as cell-based. The settings on record: ATCC 25922, 24 h. How it is done:
as §1

The next data set deals with P.aeruginosa ATCC 27853. Type of data set: cell-based, Pseudomonas aeruginosa. The settings on record: ATCC 27853, 24 h. How it is done:
as §1

The test system of a further data set is mouse RBCs. Description: Hemolytic activity. Type of data set: cell-based. The settings on record: equal volume of 8% RBC suspension, 1 h, OD 490 nm, Triton X-100 positive control; for hemolysis rate at 128 µg/mL: peptide 128 µg/mL (maximum concentration). On the procedure: Mouse red blood cells (RBCs) were collected using the eyeball removal method to investigate the hemolytic activity of the Feleucin-K3 analogs. Then, these analogs were incubated with the same volume of 8% RBC suspension for 1 h. After centrifugation for 10 min, 100 μL of supernatant was withdrawn, and the optical density at 490 nm was detected. The hemolysis rate of the cells treated with 0.1% Triton X-100 (Solarbio, Beijing, China) was used as a positive control, and PBS was used as a negative control.

Take `C=CCCCC(C)(N)C(=O)N[C@@H](CC(C)C)C(=O)N[C@@H](CCCCN)C(=O)N[C@@H](CC(C)C)C(=O)N[C@@H](CC(C)C)C(=O)N[C@@H](CCCCN)C(=O)N[C@@H](CCCCN)C(=O)N[C@@H](CC(C)C)C(=O)N[C@@H](CC(C)C)C(N)=O` (some centres unmarked) [Feleucin-K65] (H-[ξαMeGly(pent-4-enyl)]LKLLKKLL-NH2): in the data set on E. coli ATCC 25922 [1], the “MIC, E. coli ATCC 25922” value was found to be 8 mg/L (≈ 7.23 µM). Further, in the data set on MRSA 936, the “MIC, MRSA 936” value worked out at 4 mg/L (≈ 3.61 µM). Further, in the data set on MRSA ATCC 33591, the “MBIC50, MRSA ATCC 33591” value was 8 µg/mL and the “MBIC90, MRSA ATCC 33591” value was 8 µg/mL. Further, in the data set with S. aureus ATCC 25923, the “MBIC50, S. aureus ATCC 25923” value came out at 8 µg/mL and the “MBIC90, S. aureus ATCC 25923” value worked out at 16 µg/mL. In the data set on E. coli ATCC 25922 [2], the “MBIC50, E. coli ATCC 25922” value was determined as 16 µg/mL and the “MBIC90, E. coli ATCC 25922” value is 32 µg/mL. In the data set with P.aeruginosa ATCC 27853, the “MBIC50, P.aeruginosa ATCC 27853” value was determined as 8 µg/mL and the “MBIC90, P.aeruginosa ATCC 27853” value was found to be 16 µg/mL. In the data set with mouse RBCs (peptide 64 µg/mL), the “hemolysis rate at 64 µg/mL” value amounted to 9.08%. Besides, the “hemolysis rate at 128 µg/mL” value in the data set on mouse RBCs amounted to 31.6%.

With `C=CCCCC(C)(NC(=O)[C@H](CC(C)C)NC(=O)[C@H](CCCCN)NC(=O)[C@H](CCCCN)NC(=O)[C@H](CC(C)C)NC(=O)[C@H](CC(C)C)NC(=O)[C@H](CCCCN)NC(=O)[C@H](CC(C)C)NC(=O)[C@@H](N)Cc1ccccc1)C(N)=O` (some centres unmarked) [Feleucin-K70] (H-FLKLLKKL[ξαMeGly(pent-4-enyl)]-NH2), the “MIC, E. coli ATCC 25922” value in the data set on E. coli ATCC 25922 [1] stood at 8 mg/L (≈ 7.01 µM). For the same compound, the “MIC, MRSA 936” value against MRSA 936 was determined as 8 mg/L (≈ 7.01 µM). For the same compound, in the data set on MRSA ATCC 33591, the “MBIC50, MRSA ATCC 33591” value worked out at 4 µg/mL and the “MBIC90, MRSA ATCC 33591” value was 8 µg/mL. In the data set with S. aureus ATCC 25923, the “MBIC50, S. aureus ATCC 25923” value worked out at 4 µg/mL and the “MBIC90, S. aureus ATCC 25923” value turned out to be 8 µg/mL. In addition, in the data set on E. coli ATCC 25922 [2], the “MBIC50, E. coli ATCC 25922” value was determined as 8 µg/mL and the “MBIC90, E. coli ATCC 25922” value was found to be 32 µg/mL. In addition, in the data set on P.aeruginosa ATCC 27853, the “MBIC50, P.aeruginosa ATCC 27853” value is 8 µg/mL and the “MBIC90, P.aeruginosa ATCC 27853” value was found to be 16 µg/mL. For the same compound, the “hemolysis rate at 128 µg/mL” value with mouse RBCs is given as “less than 1%”.
